Reference: ChEMBL document CHEMBL5726211, “SGC stimulators” (2019)
pEC50: −log10 of the molar value.

Experiment: HEK WC Assay: Human embryonic kidney cells (HEK293), endogenously expressing soluble guanylate cyclase (sGC), were used to evaluate the activity of test compounds. Compounds stimulating the sGC receptor should cause an increase in the intracellular concentration of cGMP. HEK 293 cells were seeded in Dulbecco's Modification of Eagle's Medium supplemented with fetal bovine serum (10% final) and L-glutamine (2 mM final) in a 200 μL volume at a density of 1×10^5 cells/well in a poly-D-lysine coated 96 well flat bottom plate and grown overnight at 37° C. Medium was aspirated and cells were washed with 1× Hank's Buffered Saline Salt Solution (200 μL). Cells were then incubated for 15 minutes at 37° C. with 0.5 mM 3-isobutyl-1-methylxanthine (200 μL). Test article and sodium nitroprusside were then added to the assay mixture (2 μL each) and incubated at 37° C. for 10 minutes. After the 10 minute incubation, the assay mixture was aspirated and 0.1M HCl (200 μL) was added to the cells. The plate was incubated at 4° C. for 30 minutes in the 0.1M HCl to stop the reaction and lysed the cells. The plates were then centrifuged at 1,200 g for 5 minutes at room temperature. Supernatants were collected and transferred to a new flat bottom 96 well plate for analysis. Vehicle controls were carried out using DMSO (1%). A known sGC stimulator, BAY 41-2272, was used as the positive control. Samples were diluted with an equal volume of 1 M Ammonium Acetate (pH 7) to neutralize samples for better chromatography. A 2×cGMP standard curve was prepared in 0.1 M HCl and then diluted with an equal volume of 1 M Ammonium Acetate, with the following final concentrations in nM: 1024, 512, 256, 128, 64, 32, 16, 8, 4, 2, 1. cGMP concentrations were determined from each sample using the LC/MS conditions (Table 2 below) and calculated standard curve. EC50 values were calculated from concentration-response curves generated with GraphPad Prism Software.
Format: cell-based

`Nc1nc(-c2cc(-c3ccon3)n(Cc3ccccc3F)n2)ncc1NC(=O)c1cscn1` and `CC(C)(F)C(=O)Nc1cnc(-c2cc(-c3ccon3)n(Cc3ccccc3F)n2)nc1N` cannot be ordered by pEC50: > 4.70 for the first, > 4.70 for the second.

First: CN(C)c1ccccc1C(=O)Nc1cnc(-c2cc(-c3ccon3)n(Cc3ccccc3F)n2)nc1N
Second: Cc1cccc(C)c1C(=O)Nc1cnc(-c2cc(-c3ccon3)n(Cc3ccccc3F)n2)nc1N
The pEC50 of the first is lower: 4.22 to 4.40 for the first, > 4.70 for the second. The second is the more potent here.

`COc1ccc(C(=O)Nc2cnc(-c3cc(-c4ccon4)n(Cc4ccccc4F)n3)nc2N)cc1` and `Nc1nc(-c2cc(-c3ccon3)n(Cc3ccccc3F)n2)ncc1NC(=O)c1cccc(OC(F)(F)F)c1` cannot be ordered by pEC50: > 4.70 for the first, > 4.70 for the second.

Compared with `[C-]#[N+]c1cc(-c2ccccn2)nn1Cc1ccccc1F`, `[C-]#[N+]C1(C(=O)Nc2cnc(-c3cc(-c4ccon4)n(Cc4ccccc4F)n3)nc2N)CC1` is higher in pEC50: 4.52 for the first, > 4.70 for the second. The second is the more potent here.

Compared with `Nc1nc(-c2cc(-c3ccon3)n(Cc3ccccc3F)n2)ncc1NC(=O)C1CC2C=CC1C2` (stereo unspecified), `CCOC(=O)c1cnc(-c2cc(-c3ccon3)n(Cc3ccccc3F)n2)nc1O` is lower in pEC50: > 4.70 for the first, 4.40 to 4.70 for the second. The first is the more potent here.

In the case of `Nc1nc(-c2cc(-c3ncco3)n(Cc3ccccc3F)n2)ncc1NC(=O)C1(C(F)(F)F)CC1`, the pEC50 was > 4.70.
